Measurements reported in patent US20260256145A1, “IRON AGENT FOR GROWING ANIMALS AND PLANTS, METHOD FOR PRODUCING THE SAME, AND IRON SUPPLY PREPARATION FOR GROWING ANIMALS AND PLANTS” (Sobue Clay Co., Ltd., priority 2023, published 2026).

How the values were obtained:
[1] = tested on: plants; assay: Consideration of Use Examples 1 to 6: plant weight index versus no iron agent; type: in vivo; conditions: no irrigation with an iron agent = 100, based on Use Examples 1 to 6
Description: (§1) An aqueous solution of sodium ferrous citrate to be irrigated was prepared by adding 150 g of citric acid to 850 ml of tap water to produce citric acid water, then adding thereto 25 g of reduced iron powder, followed by stirring, and then adding to the resultant mixture 150 g of sodium hydrogen carbonate, followed by stirring and mixing.
The following consideration is made based on the results of Use Examples 1 to 6.
When the index in the case of no irrigation with an iron agent is 100, with respect to the plant's aboveground weight, it is 116 in the case of the irrigation with the aqueous solution of iron citrate and 209 in the case of the irrigation with the aqueous solution of sodium ferrous citrate, and with respect to the plant's root weight, it is 134 in the case of the irrigation with the aqueous solution of iron citrate and 464 in the case of the irrigation with the aqueous solution of sodium ferrous citrate.

[2] = Change of Fe2+ ion concentration of the aqueous solution in the production process; type: physicochemical; conditions: iron mixed with the citrate solution while stirring, FIGS. 1 to 4
Description: The aqueous solution of iron citrate is prepared by any one of the following methods: a method in which citric acid, solid iron and water are stirred and mixed together; a method in which solid iron is added to citric acid having been dissolved in water, followed by stirring and mixing; and a method in which solid iron and citric acid powder are added to a required amount of citric acid having been dissolved in water, followed by stirring and mixing while, if necessary, heating. To the thus obtained aqueous solution of iron citrate is mixed sodium hydrogen carbonate while, if necessary, heating, thereby producing an aqueous solution of sodium ferrous citrate. By the addition of sodium hydrogen carbonate, the aqueous solution of sodium ferrous citrate has been alkalized to have a pH value of from 5 to 8.
FIGS. 2 to 4 respectively show the change of the Fe^2+ ion concentration of aqueous iron agent solutions 1 to 3 for growth, each of which is produced by the above-mentioned method. […] Therefore, it is judged that the aqueous iron citrate solution is not suitable as an iron agent for growth.
In the cases of aqueous sodium ferrous citrate solutions 1 to 3 shown in FIGS. 2 to 4, the Fe^2+ ion concentration is confirmed to increase, differing from the case of the aqueous iron citrate solution shown in FIG. 1. […]

[3] = tested on: okra; assay: Use Example 3: growth of okra irrigated with iron agent; type: in vivo; conditions: irrigation once a week, after 19 days of cultivation, in comparison with the other plants
Description: as §1
(§2) Plants not irrigated with an iron agent (left side of the figure), plants irrigated with an aqueous solution of iron citrate (center of the figure), and plants irrigated with an aqueous solution of sodium citrate (right side of the figure) as the iron supply preparation for growth of the present application were provided, and the plants were cultivated while performing irrigation on the plants at a rate of once a week, and the growth conditions after 19 days of cultivation are shown. Each of the aqueous solution of iron citrate and the aqueous solution of sodium ferrous citrate was diluted 10000 times so that the total iron content was 15000 ppm, and the Fe^2+ content was 3000 ppm for iron citrate and 12500 ppm for sodium ferrous citrate.

[4] = tested on: Italian parsley; assay: Use Example 6: growth of Italian parsley irrigated with iron agent; type: in vivo; conditions: irrigation once a week, after 19 days of cultivation, in comparison with the other plants
Description: as §1, §2

[5] = tested on: molokheiya; assay: Use Example 1: growth of molokheiya irrigated with iron agent; type: in vivo; conditions: irrigation once a week, after 30 days of cultivation, in comparison with the other plants (no iron agent, iron citrate)
Description: as §1
as §2, with “30” for “19”

[6] = tested on: red leaf lettuce; assay: Use Example 4: growth of red leaf lettuce irrigated with iron agent; type: in vivo; conditions: irrigation once a week, after 19 days of cultivation, in comparison with the other plants
Description: as §1, §2

[7] = tested on: komatsuna (Japanese mustard spinach); assay: Use Example 2: growth of komatsuna irrigated with iron agent; type: in vivo; conditions: irrigation once a week, after 23 days of cultivation, in comparison with the other plants
Description: as §1
as §2, with “23” for “19”

[8] = tested on: parsley; assay: Use Example 5: growth of parsley irrigated with iron agent; type: in vivo; conditions: irrigation once a week, after 19 days of cultivation, in comparison with the other plants
Description: as §1, §2

Substance | index of the plant's aboveground weight [1] | index of the plant's root weight [1] | change of the Fe^2+ ion concentration of the aqueous solution [2] | rooting [3] | weight of the aboveground part [3] | rooting [4] | weight of the aboveground part [4] | rooting [5] | weight of the aboveground part [5] | rooting [6] | weight of the aboveground part [6] | rooting [7] | weight of the aboveground part [7] | rooting [8] | weight of the aboveground part [8]
iron citrate [reference compound] | 116 | 134 | not confirmed to increase | – | – | – | – | – | – | – | – | – | – | – | –
sodium ferrous citrate | 209 | 464 | – | improvement | increase | improvement | increase | improvement | increase | improvement | increase | improvement | increase | improvement | increase
